Results on five compounds are retold here after patent US20230322721A1 (OSLO UNIVERSITETSSYKEHUS HF, priority 2020, published 2023).

In one data set the test system is HEK293. Nature of the data set: Cellular IC50 HEK293. In kind it is cell-based. The source says: (§1) XLfit (idbs) was used to determine the IC50-values in inhibition experiments. The following formula was chosen to fit the data points (Langmuir Binding Isotherm): fit=((A+(B*x))+(((C−B)*(1−exp((−1*D)*x)))/D)), res=(y−fit).
Data set [1] is described as follows: Metabolic stability in mouse liver microsomes (MLM). In kind it is in vitro ADME. The conditions noted are these: for microsomal CLint at 1 μM / half-life at 1 μM: pH 7.4, 1 μM compound; for half-life at 1 μM: read-out: MLM t1/2 average. As to the method:
(§2) Metabolic stability was investigated in mouse liver microsomes (MLM) and in human liver microsomes (HLM): […] Incubations were performed at 37° C. Control incubations with reference substances were included for each experiment. […] After the last time point, the quench plates were mixed thoroughly and centrifuged for 15 minutes at 3700 rpm and 10° C. (Eppendorf 5804R). The supernatant was transferred to new 96 well plates and subjected to LCMS analysis. The disappearance of the parent compound was determined.
Background: Liver microsomes are vesicles of endoplasmic reticulum, rich in cytochrome P450 enzymes.

The next data set addresses TNKS2 (Homo sapiens (Human), UniProt Q9H2K2). Kind of data set: Biochemical IC50 TNKS2. To be noted: read-out: Biochemical IC50 TNKS2.
Description: as §1

Data set [2] in a line: Metabolic stability in human liver microsomes (HLM). The data set is classed as in vitro ADME. To be noted: for microsomal CLint at 1 μM / half-life at 1 μM: pH 7.4, 1 μM compound; for half-life at 1 μM: read-out: HLM t1/2 average. The method, then: as §2
Where [3] appears, read: Homo sapiens, HEK293; read-out: Cellular IC50 HEK293.
Where [4] appears, read: 0.5 mg/ml microsomal protein, 37° C.
[5] abbreviates: Homo sapiens, HEK293, read-out: Cellular IC50 HEK293.
Where [6] appears, read: 1 μM compound, 0.5 mg/ml microsomal protein, 37° C.

Where a name gives a salt, the structure may show the parent alone. Read-outs that look alike come from different tables or passages of the source.

Chain of TNKS2 (Q9H2K2 whole entry): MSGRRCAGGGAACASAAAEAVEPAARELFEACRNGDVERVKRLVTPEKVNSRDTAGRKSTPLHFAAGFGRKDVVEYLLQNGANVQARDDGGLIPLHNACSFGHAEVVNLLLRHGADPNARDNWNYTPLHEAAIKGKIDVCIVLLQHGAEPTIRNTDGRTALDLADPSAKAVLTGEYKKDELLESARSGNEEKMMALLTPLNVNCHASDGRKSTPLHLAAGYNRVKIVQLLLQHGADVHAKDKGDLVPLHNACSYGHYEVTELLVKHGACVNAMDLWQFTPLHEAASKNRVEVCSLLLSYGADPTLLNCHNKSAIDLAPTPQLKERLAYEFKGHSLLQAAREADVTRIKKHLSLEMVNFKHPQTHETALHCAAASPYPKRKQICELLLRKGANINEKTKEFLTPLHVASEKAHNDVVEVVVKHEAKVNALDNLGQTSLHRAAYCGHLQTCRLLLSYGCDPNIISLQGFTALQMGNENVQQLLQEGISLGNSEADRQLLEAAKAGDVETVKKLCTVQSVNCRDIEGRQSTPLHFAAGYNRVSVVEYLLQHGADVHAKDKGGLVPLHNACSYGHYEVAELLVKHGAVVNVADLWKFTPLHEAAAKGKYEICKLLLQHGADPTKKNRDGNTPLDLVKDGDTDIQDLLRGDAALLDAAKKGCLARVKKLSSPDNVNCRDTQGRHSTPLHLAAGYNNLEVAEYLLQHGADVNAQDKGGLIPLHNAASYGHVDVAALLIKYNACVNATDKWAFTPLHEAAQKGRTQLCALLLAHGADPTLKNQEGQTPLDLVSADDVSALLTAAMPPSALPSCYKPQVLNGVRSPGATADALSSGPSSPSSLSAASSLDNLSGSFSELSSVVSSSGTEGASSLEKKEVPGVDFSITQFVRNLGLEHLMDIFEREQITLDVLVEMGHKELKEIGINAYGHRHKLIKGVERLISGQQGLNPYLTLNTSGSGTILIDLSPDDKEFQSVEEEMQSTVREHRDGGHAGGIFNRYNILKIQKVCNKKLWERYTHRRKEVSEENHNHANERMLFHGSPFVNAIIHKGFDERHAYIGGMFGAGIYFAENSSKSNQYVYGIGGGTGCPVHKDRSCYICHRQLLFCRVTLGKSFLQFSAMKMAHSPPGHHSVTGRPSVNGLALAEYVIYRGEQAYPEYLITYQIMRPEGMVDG

For orientation: IC50 means the concentration that inhibits the measured activity by half. For orientation: microsomal CLint means the rate of metabolic loss divided by the concentration. In the case of `CCOc1ccc(-c2nnc([C@H]3C[C@H](NC(=O)c4cccc5nc(O)cnc45)C3)n2-c2ccccc2F)nc1` [Example 2, Dihydrochloride], the IC50 was found to be 1.1 nM in the data set with HEK293 (setting [3]) and 1.5 nM on TNKS2. For the same compound, the microsomal CLint at 1 μM in data set [1] (setting [4]) was determined as 7 µL/min/mg; in data set [2] (setting [4]), 17 µL/min/mg. Besides, the results for the half-life at 1 μM in data set [1] (setting [4]) and in data set [2] (setting [4]) were more than 1.5 h and 1.32 h, respectively.

Regarding `CCOc1ccc(-c2nnc([C@H]3C[C@H](NC(=O)c4cccc5nc(O)c(O)nc45)C3)n2-c2ccccc2F)nc1` [Example 3, N-((1R,3r)-3-(5-(5-ethoxypyridin-2-yl)-4-(2-fluorophenyl)-4H-1,2,4-triazol-3-yl)cyclobutyl)-2,3-dihydroxyquinoxaline-5-carboxamide], the half-maximal inhibitory concentration (IC50) in the data set with HEK293 (setting [3]) was found to be 1250 nM; at TNKS2, 71 nM. Besides, the microsomal CLint at 1 μM is 9 µL/min/mg in data set [1] (setting [4]) and 5 µL/min/mg in data set [2] (setting [4]). For the same compound, the half-life at 1 μM in data set [1] (setting [4]) and in data set [2] (setting [4]) was more than 1.5 h each time.

For `CCOc1ccc(-c2nnc([C@H]3C[C@H](NC(=O)c4cccc5c4ncc[n+]5[O-])C3)n2-c2ccccc2F)nc1` [Example 4, 5-(((1R,3r)-3-(5-(5-ethoxypyridin-2-yl)-4-(2-fluorophenyl)-4H-1,2,4-triazol-3-yl)cyclobutyl)carbamoyl)quinoxaline 1-oxide], the IC50 stood at 2.5 nM in the data set on HEK293 (setting [5]) and 1.6 nM at TNKS2. Besides, the intrinsic clearance (microsomal CLint) at 1 μM was 19 µL/min/mg in data set [1] (setting [4]) and 5 µL/min/mg in data set [2] (setting [4]). In addition, the half-life at 1 μM in data set [1] (setting [4]) was 1.18 h; in data set [2] (setting [4]), more than 1.5 h.

For the compound `CCOc1ccc(-c2nnc([C@H]3C[C@H](NC(=O)c4cccc5nccnc45)C3)n2-c2ccccc2F)[n+]([O-])c1` [Example 5, 5-ethoxy-2-(4-(2-fluorophenyl)-5-((1r,3R)-3-(quinoxaline-5-carboxamido)cyclobutyl)-4H-1,2,4-triazol-3-yl)pyridine 1-oxide], in the data set on HEK293 (HEK293; read-out: Cellular IC50 HEK293), the IC50 is 0.75 nM. For the same compound, in data set [1] (setting [6]), the “MLM Clint average” value is 15 μl/min/mg protein and the “MLM t1/2 average” value was more than 1.5 h. In addition, the 50% inhibitory concentration (IC50) on TNKS2 came out at 1.3 nM. In addition, in data set [2] (setting [6]), the “HLM Clint average” value is recorded as 8 μl/min/mg protein and the “HLM t1/2 average” value was more than 1.5 h.

As to `CCOc1ccc(-c2nnc([C@H]3C[C@H](NC(=O)c4cccc5nccnc45)C3)n2-c2ccccc2F)nc1` [Example 154 of WO 2019/243822, reference compound], the 50% inhibitory concentration (IC50) in the data set on HEK293 (setting [5]) worked out at 0.53 nM; on TNKS2 it was 1.8 nM. Besides, in data set [1], the “clearance in MLM (in words)” value is “high clearance”. The intrinsic clearance (microsomal CLint) at 1 μM in data set [1] (setting [4]) was found to be 81 µL/min/mg; in data set [2] (setting [4]) it was 40 µL/min/mg. Also, the half-life at 1 μM in data set [1] (setting [4]) was 0.283 h; in data set [2] (setting [4]), 0.583 h. In data set [2], the “clearance in HLM (in words)” value is given as “moderate clearance”.
